The source of these data is PMC8954846, “Molecular Characterisation of Flavanone O-methylation in Eucalyptus” (International Journal of Molecular Sciences, 2022).

Where two headings read alike, the source gives them in different places.

One assay has as its system T1, EmOMT1.
T1 construct: gene OMT1; full-length
Nature of the assay: methyltransferase assay, RP-HPLC, extrapolated non-linear regression. Type of assay: biochemical, Eucalyptus mitchelliana. The following applies: crude recombinant E. coli extract, SAM, 50 mM potassium phosphate pH 7, 30 °C, 16 h incubation needed for product, read-out: apparent Km.

The subject of the next assay is T2, EcOMT1.
T2 construct: gene OMT1; full-length
Nature of the assay: methyltransferase assay, RP-HPLC of pinostrobin formed, Michaelis-Menten fit. It is filed as biochemical, Eucalyptus croajingolensis. The following applies: crude recombinant E. coli extract; SAM; 50 mM potassium phosphate pH 7, 30 °C; read-out: apparent Km app.

For another assay, the system named is T3, EnOMT1.
T3 construct: gene OMT1; full-length, 349 residues; E. coli BL21 (DE3)
The assay is described as above. Type of assay: biochemical, Eucalyptus nitida. The following applies: crude recombinant E. coli extract, 50 mM potassium phosphate pH 7, 30 °C, read-out: apparent Km.

What is called Km is the substrate concentration at which the rate is half of its maximum. For `O=C1C[C@@H](c2ccccc2)Oc2cc(O)cc(O)c21` [pinocembrin], the Km in the assay with EmOMT1 is over 800 µM; with EcOMT1, 2.55 ± 0.38 µM; with EnOMT1 (100 μM SAM, kcat from His-affinity purified enzyme), 2.05 ± 0.16 µM.
With `C[S+](CC[C@H](N)C(=O)O)C[C@H]1O[C@@H](n2cnc3c(N)ncnc32)[C@H](O)[C@@H]1O` (stereo partly shown) [S-adenosylmethionine], in the assay on EnOMT1 (50 μM pinocembrin, methyl donor), the Michaelis constant (Km) was determined as 4.99 ± 0.29 µM.
